Results taken from US20250269039A1, “THERAPEUTIC-OLIGONUCLEOTIDES ACTIVATED BY NUCLEASES” (priority 2020, published 2025).
In brackets after ≈: the same amount, converted by molar mass.

Experiments:
S. aureus = assay: Growth inhibition curves / MICs in S. aureus cultures (strain not named or summary over strains); type: cell-based, Staphylococcus aureus; conditions: Staphylococcus aureus, read-out: MIC values over all S. aureus strains tested
Method: Antimicrobial susceptibility testing. Minimal inhibitory concentrations (MIC) of all nucleoside analogues and TOUCANs against each bacteria strain were determined using broth microdilution method. A single colony obtained from overnight culture on tryptone soy agar with 5% defibrinated sheep blood was inoculated in cation-adjusted Mueller Hinton Broth and adjusted to 10^6 CFU/mL. TOUCANs were prepared in PBS+/+ (treatment) and serial dilutions were made in 96-well polystyrene round bottom microwell plates with 50 μL final volume for each concentration. PBS+/+ was used as untreated control. Next, 50 μL bacteria solutions were added to each well to a final bacteria concentration of 5×10^5 CFU/mL. Plates were incubated at 37° C. in Cytation 1 Cell Imaging Multimode Reader. Growth curves were obtained by measuring optical densities at 600 nm every 10 minutes for 18 hours using Cytation 1 Cell Imaging Multimode Reader. In addition, visual inspection of the plates was carried out after 18 hours and photographs were taken. MICs were defined as the lowest drug concentration in the microwell at which bacterial growth was not visible at the end of the incubation period. Besides MIC determination, specificity of TOUCAN 7mGe was also shown with subcultures on chromogenic media. For this purpose, 5 μL of different concentrations of each strain were inoculated onto CHROM agar Orientation Media (Becton Dickinson) and the bacterial growth of each bacteria strain tested was observed by naked eye after incubation at 37° C. for 24 hours. Finally, photographs of the chromogenic media were taken.

S. aureus ATCC1766 = assay: Mouse thigh muscle infection model: gross pictures, histopathology, bacteria counts; type: in vivo, mice; conditions: for histopathological analysis of infected leg / visible bacterial infection of infected leg (gross photographs): mice, i.v.; for histopathological analysis of infected leg: 20 mg/kg/24 hour Floxuridine equivalent, FIG. 7d-g; for visible bacterial infection of infected leg (gross photographs): four doses equivalent to 5 mg/kg Floxuridine over 24 hours, FIG. 7a-c
Method: In vivo assessment of the therapeutic efficacy of TOUCANs in a mouse infection model. All animal experiments described in this study were conducted at the Linköping University Center for Biomedical Resources and were approved by the Swedish Ethical Board “Jordbruksverket” under the animal protocol 1253. All experiments were conducted according to the principles expressed in the Declaration of Helsinki. Six-weeks old female […] mice were divided into three different groups: Placebo (saline solution), Floxuridine alone and TOUCAN 7mFx, with 8 mice per group. First, to induce the infection, S. aureus ATCC1766 strain was cultured on tryptone soy agar with 5% defibrinated sheep blood, and single colonies were transferred to 25 mL tryptone soy broth and incubated at 37° C. for 12 hours with 200 rpm shaking. Next, bacteria solution was diluted 1/100 using PBS+/+ (˜10^7 CFU/mL) and 50 μL (˜5×10^5 CFU) were injected into the right thigh muscles of all mice under sterile conditions and 2% isoflurane anesthesia. This method was optimized based on our previous animal infection model.^16 In this model, the left uninfected leg was used as control for each animal. This model induces reproducible infections after 24 hours. Next, the therapeutic regime was adapted from a previous study that validated the efficacy of several antibiotics against S. aureus.^28 We have treated the mice for 24 hours with four doses of TOUCAN 7mFx equivalent to 5 mg/kg of Floxuridine in 100 μL of PBS−/−, administered intravenously by tail vein injections. The first dose was administered after 2 hours post-inoculation, followed by 3 additional injections at the same concentration every 6 hours. In total, each animal was given TOUCAN 7mFx equivalent to 20 mg/kg/24 hour of Floxuridine. In this study, two additional groups, Placebo and Floxuridine alone, were also tested in infected animals. In the Placebo group, mice were injected with a saline solution (PBS), and in the Floxuridine group, mice were injected with 20 mg/kg/24 hours of Floxuridine under the same conditions indicated for TOUCAN 7mFx. After 24 hours, blood samples were collected, and mice were euthanized. For a thorough blood analysis, we have included an additional group of uninfected/untreated mice as control. Next, gross pictures of both legs were taken and samples for histopathological and bacteriological analyses were collected. At least four mice per group per analysis were used in this study.
Gross pictures. Once the mice were euthanized, the skin from legs and dorsal part was removed very carefully to allow observation of the bacterial infection and the associated tissue damage. Next, photographs were taken to document the localized infection for each animal.
Histopathological analysis. To evaluate the histopathological features of infected and uninfected tissues, the thigh muscles of the animals were dissected. Subsequently, tissues were transferred to 4% buffered formaldehyde solution and stored at 4° C. for 24 hours. Then, tissues were removed from the formaldehyde solution and transferred into 50% ethanol for 15 minutes followed by 70% ethanol until processed. Next, tissues were fixed, dehydrated and wax infiltrated using a Leica TP1020 system for 7 hours. Subsequently, tissues were embedded in paraffin using a Leica EG 1150 system. The sections slides were prepared using an Automatic Rotary Microtome HM355S system and finally, samples were stained with Hematoxylin-Eosin (H&E) using an Automatic Leica ST4020 Linear Stainer. The slides were imaged using an Olympus BX51 light microscope.
Bacteria counts. To measure viable bacteria in mice, infected and uninfected tissues from both legs were collected, transferred to individual 1.5 mL vials and weighted on a microbalance. Each sample was homogenized in 1 mL of PBS using Fisherbrand Bead Mill 4 automatic homogenizer (Fisher Scientific). The homogenized solutions were serially diluted to 1:100, 1:1.000, 1:10.000 and 1:100.000. […]

[1] = infected leg, CFU/g, after 24 hours, FIG. 7h

Row | Compound | MIC (S. aureus) [µg/mL] | bacteria count of infected leg (S. aureus ATCC1766; infected leg, after 24 hours, FIG. 7h) | histopathological analysis of infected leg (S. aureus ATCC1766) | visible bacterial infection of infected leg (gross photographs) (S. aureus ATCC1766) | times less bacteria recovered compared to Floxuridine group (S. aureus ATCC1766; [1]) [times] | times less bacteria recovered compared to Placebo group (S. aureus ATCC1766; [1]) [times]
1 | O=c1[nH]c(=O)n([C@H]2C[C@H](O)[C@@H](CO)O2)cc1F [Floxuridine, reference compound] | 0.005 to 0.32 (≈ 0.0203 to 1.3 µM) | high bacteria count | clear evidence of bacterial infection, inflammation, and neutrophil infiltration | slightly stronger infection | – | –
2 | mU-mU-mU-mU-T-T-Fx [TOUCAN 7mFx] | – | – | minimal inflammation with residual neutrophil infiltration | do not show any visible signs of bacterial infection | 2949 | 642
